US10550143B2, “C,O-spiro aryl glycoside compounds, preparation therefor and use thereof” (SHANGHAI INSTITUTE OF MATERIA MEDICA, CHINESE ACADEMY OF …, priority 2015, dated 2020)
Marks after values point to notes of the source that are not given here.

Key:
SD rats = assay: Acute administration of A28 at multiple doses, urinary glucose of SD rats; type: in vivo, rat; conditions: within 24 h
Protocol: (1) 72 normal male SD rats were selected and randomly divided into 9 groups according to body weight and blood glucose, 8 in each group. […] After oral gavage, the rats were placed in rats metabolic cages, and urine was collected after 24 h, and the urine volume was recorded, then preserved under −20° C. Rats take food and water freely during the experimental period.
(2) Index Determination: Glucose levels in urine are measured by the glucose assay kit.

C57BL/6J mice = assay: Acute administration of A28 at multiple doses, oral glucose tolerance of C57BL/6J mice; type: in vivo, mouse; conditions: C57BL/6J mice OGTT; for Blood glucose level 0: before sugar
Protocol: (1) Experimental Methods: 56 C57BL/6J mice were selected and starved for 6 h, took water freely, then randomly divided into 7 groups according to body weight and random blood glucose, 8 rats in each group. […] Average hypoglycemic rate %=(AUC0-120 min of solvent control group−AUC0-120 min of administration group)/(AUC0-120 min of solvent control group−AUC0-120 min of blank control group)*100%

db/db mice [1] = assay: Chronic administration, glycosylated hemoglobin level in db/db mice; type: in vivo, mouse; conditions: for HbA1c Decline rate %: vs vehicle
Protocol: (§1) Oral gavage administrated, daily dose volume was 10 mL/kg, administered once daily. Administration time was 9: 00-10:00 daily, and the administration period was 5 weeks.
In the end of the above experiment, the orbital blood was taken from animals of each group and divided into two tubes, one was centrifuged to take blood cells for the determination of glycated hemoglobin content, the other tube was added with 25 μL EDTA in advance, centrifuged and the supernatant was taken to determine the indexes such as triglyceride (TG), total cholesterol (TC), total protein (TP), albumin, low density lipoprotein (LDL), high density lipoprotein (HDL), non-esterified fatty acid (NEFA) and so on.

db/db mice [2] = assay: Chronic administration, oral glucose tolerance in db/db mice; type: in vivo, mouse; conditions: glucose tolerance, chronic administration; for AUC0-2 h reduction rate (%): vs vehicle
Protocol: as §1
The glucose tolerance of mice of normal control group, model control group, test substance group and positive control group were determined 3 weeks after administration of drug, oral administrated with 1.5 g/kg of glucose, and taken 2 μL of blood on the tail. 4 μL of normal saline was added to 96 well sharp bottom plate to dilute evenly, and then the blood glucose was measured. The blood glucose levels before the sugar administration and at 15, 30, 60, 90 and 120 min after the sugar administration were measured. The true blood glucose level was calculated and the area under the blood glucose curve within 120 min was calculated by the following formula: AUC0-2h (mmol/L·h)=(BG0+BG15)×0.25/2+(BG15+BG30)×0.25/2+(BG30+BG60)×0.5/2+(BG60+[…])×1.0/2 Note: BG0, BG15, BG30, BG60 and BG120 represent the blood glucose levels before the sugar administration, and at 15, 30, 60, and 120 min after sugar administration, respectively. Average hypoglycemic rate %=(solvent control group AUC0-2h−administration group AUC0-2h)/solvent control group AUC0-2h*100%

## CCOc1ccc(Cc2cc([C@@H]3O[C@H](CO)[C@@H](O)[C@H](O)[C@H]3O)ccc2Cl)cc1 [Dapa]
SD rats; oral 1 mg/kg
  Total sugar excretion: 706.69 ± 39.98 mg/100 g
  Urine concentration: 313.13 ± 16.92 mmol/L
  Urine volume: 31.38 ± 1.99 mL
SD rats; oral 3 mg/kg
  Total sugar excretion: 859.30 ± 41.55 mg/100 g
  Urine concentration: 327.16 ± 24.63 mmol/L
  Urine volume: 36.88 ± 1.55 mL
C57BL/6J mice; oral 0.3 mg/kg
  AUC0-2 h: 20.9 ± 1.6 mmol·h/L
  Average hypoglycemic rate % (0-2 h): 4.9%
  Blood glucose level 15 min: 13.4 ± 2.3 mmol/L
  Blood glucose level 30 min: 12.1 ± 1.0 mmol/L
  Blood glucose level 60 min: 10.6 ± 1.0 mmol/L
  Blood glucose level 90 min: 9.3 ± 1.1 mmol/L
  Blood glucose level 120 min: 8.8 ± 0.8 mmol/L
  Blood glucose level 0: 7.1 ± 0.4 mmol/L
C57BL/6J mice; oral 1 mg/kg
  AUC0-2 h: 19.3 ± 1.3 mmol·h/L
  Average hypoglycemic rate % (0-2 h): 12.4%
  Blood glucose level 15 min: 12.3 ± 1.1 mmol/L
  Blood glucose level 30 min: 12.0 ± 1.1 mmol/L
  Blood glucose level 60 min: 9.1 ± 1.1 mmol/L
  Blood glucose level 90 min: 8.4 ± 0.9 mmol/L
  Blood glucose level 120 min: 8.5 ± 0.9 mmol/L
  Blood glucose level 0: 6.5 ± 0.9 mmol/L
C57BL/6J mice; oral 3 mg/kg
  AUC0-2 h: 18.2 ± 1.6 mmol·h/L
  Average hypoglycemic rate % (0-2 h): 17.5%
  Blood glucose level 15 min: 11.6 ± 0.9 mmol/L
  Blood glucose level 30 min: 11.6 ± 1.1 mmol/L
  Blood glucose level 60 min: 8.9 ± 1.4 mmol/L
  Blood glucose level 90 min: 7.9 ± 1.1 mmol/L
  Blood glucose level 120 min: 7.0 ± 0.6 mmol/L
  Blood glucose level 0: 6.1 ± 1.0 mmol/L
db/db mice [1]; dose 1 mg/kg
  HbA1c (%): 5.79 ± 0.32 %
  HbA1c Decline rate %: 23.7%
db/db mice [1]; dose 3 mg/kg
  HbA1c (%): 5.32 ± 0.26 %
  HbA1c Decline rate %: 29.9%
db/db mice [2]; dose 1 mg/kg
  Blood glucose AUC0-2 h: 7.9 ± 1.7
  Blood glucose (mmol/L) 0 min: 10.0 ± 1.0 mmol/L
  Blood glucose (mmol/L) 15 min: 19.9 ± 1.0 mmol/L
  Blood glucose (mmol/L) 30 min: 20.3 ± 1.1 mmol/L
  Blood glucose (mmol/L) 60 min: 11.1 ± 0.5 mmol/L
  Blood glucose (mmol/L) 90 min: 10.8 ± 0.4* * mmol/L
  Blood glucose (mmol/L) 120 min: 11.8 ± 0.5* * mmol/L
  AUC0-2 h reduction rate (%): 48.9%
db/db mice [2]; dose 3 mg/kg
  Blood glucose AUC0-2 h: 9.4 ± 1.7
  Blood glucose (mmol/L) 0 min: 8.6 ± 0.4 mmol/L
  Blood glucose (mmol/L) 15 min: 19.0 ± 1.2 mmol/L
  Blood glucose (mmol/L) 30 min: 20.2 ± 1.8 mmol/L
  Blood glucose (mmol/L) 60 min: 12.0 ± 1.4 mmol/L
  Blood glucose (mmol/L) 90 min: 9.9 ± 0.8 mmol/L
  Blood glucose (mmol/L) 120 min: 9.1 ± 0.6 mmol/L
  AUC0-2 h reduction rate (%): 36.1%
